Experimental data reported in patent US12049460B2, “EGFR inhibitor compounds” (Recurium IP Holdings, LLC, priority 2016, dated 2024).

Experiments:
EGFR (T790M/L858R) = target: T1, EGFR (T790M/L858R) (Homo sapiens, UniProt P00533, L858R/T790M); experiment: EGFR biochemical enzyme assay (CisBio HTRF KinEASE TK); conditions: 30 μM ATP in substrate mix, 50 mins incubation
T1 construct: with amino acids 696-end containing the T790M and L858R mutations; GST (N); purchased Millipore
Protocol: (§1) The inhibitory activity of a compound against EGFR (T790M/L858R) were determined with CisBio HTRF (homogenous time-resolved fluorescence) KinEASE TK (#62TKOPEC). The enzyme reaction contained recombinant N-terminal GST-tagged human EGFR (T790M/L858R), which phosphorylates the HTRF tyrosine kinase biotinylated substrate.
(§2) The sequence of the substrate is proprietary to CisBio. Test compounds were serially diluted in 100% (v/v) DMSO before being acoustically dispensed from an Echo 555 (Labcyte) into black Corning 1536-well assay plates. Kinase activity assays were performed in a total reaction volume of 3 μL per well. A 1.5 μL enzyme reaction consisted of 1.6 nM EGFR ([…], L858R), 1 mM DTT, and 10 mM MgCl2. A 1.5 μL substrate mix consisted of 1 μM TK substrate, 30 μM ATP, 1 mM DTT, and 10 mM MgCl2. Following a 50 mins incubation, 3 μL of stop mix was added, which consisted of 250 nM Strep-XL665 and TK Ab-Cryptate diluted in kit detection buffer. The plates were incubated for 1 h before being read on Pherastar using standard HTRF settings. N-terminal GST-tagged recombinant human EGF receptor, with amino acids 696-end containing the T790M and L858R mutations, was obtained from Millipore.

EGFR Del-19 = target: T2, EGFR Del-19 (Homo sapiens, UniProt P00533); experiment: EGFR biochemical enzyme assay, Del-19
T2 construct: as for the T790M/L858R enzyme of the same protocol
Protocol: [The source words this procedure for another variant and reports this variant under the same test.] as §1, §2

EGFR Wt = EGFR Wt (Homo sapiens, UniProt P00533); experiment: EGFR biochemical enzyme assay, Wt
Protocol: [The source words this procedure for another variant and reports this variant under the same test.] as §1, §2

IGF1R = IGF1R (Homo sapiens, UniProt P08069); experiment: Biochemical enzyme assay, IGF1R
INSR = INSR (Homo sapiens, UniProt P06213); experiment: Biochemical enzyme assay, INSR
H1975 (L858R/T790M) = experiment: EGFR cell proliferation assay (CellTiter-Glo), H1975; format: cell-based; conditions: Homo sapiens, NCI-H1975, 3-5 days of compound treatment
Protocol: (§3) Cell Lines: A431 (WT), H1975 (L858R/T790M), PC9 (E746-A750 deletion): A431 cells were grown in DMEM (Invitrogen, Carlsbad, CA) supplemented with 10% FBS (HyClone, South Logan, UT) and 1% Penicillin-Streptomycin (P/S, Lonza, Walkersville, MD). H1975 cells were grown in RPMI 1640 (Invitrogen) supplemented with 10% FBS and 1% P/S. […] PC-9 cells were obtained from Japan. All cells were maintained and propagated as monolayer cultures at 37° C. in a humidified 5% CO2 incubator. All cells were cultured according to recommendations.
(§4) Cell proliferation was measured using the CellTiter-Glo® Luminescent Cell Viability Assay. The assay involved the addition of a single reagent (CellTiter-Glo® Reagent) directly to cells cultured in serum-supplemented medium. The assay used a one-step addition to induce cell lysis and generate a luminescent signal proportional to the amount of ATP present, which is directly proportional to the number of metabolically active cells present in culture.
(§5) Each compound evaluated was prepared as a DMSO stock solution (10 mM). Compounds were tested in duplicate on each plate, with an 11-point serial dilution curve (1:3 dilution). Compound treatment (50 μL) was added from the compound dilution plate to the cell plate. The highest compound concentration was 1 or 10 μM (final), with a 0.3% final DMSO (#D-5879, Sigma, St Louis, MO) concentration. Plates were then incubated at 37° C., 5% CO2. After 3-5 days of compound treatment, CellTiter-Glo® Reagent (#G7573, Promega, Madison, WI) was prepared in one of two ways. If thawing a frozen aliquot of CellTiter-Glo® Reagent, the aliquot was thawed and equilibrated to RT prior to use while keeping it protected from light. Alternatively, new bottles of CellTiter-Glo® Buffer and CellTiter-Glo® Substrate were thawed and equilibrated to RT prior to use. CellTiter-Glo® Buffer (100 mL) was transferred into the amber bottle containing CellTiter-Glo® Substrate to reconstitute the lyophilized enzyme/substrate mixture, forming the CellTiter-Glo® Reagent. The reconstituted reagent was mixed by gently inverting the contents to obtain a homogeneous solution, and went into solution easily in less than 1 min. Any unused reconstituted CellTiter-Glo® Reagent was immediately aliquoted and frozen at −20° C., and protected from light. Cell plates were equilibrated at RT for approximately 30 mins. An equi-volume amount of CellTiter-Glo® Reagent (100 μL) was added to each well. Plates were mixed for 2 mins on an orbital shaker to induce cell lysis, and then were allowed to incubate at RT for 10 mins to stabilize the luminescent signal. Luminescence was recorded using the PerkinElmer EnVision Excite Multilabel Reader used for endpoint reading for luminescence detection (Waltham, MA). Data was analyzed using a four-parameter fit in Microsoft Excel.

PC9 (E746-A750 deletion) = experiment: EGFR cell proliferation assay (CellTiter-Glo), PC9; format: cell-based; conditions: 3-5 days of compound treatment
Protocol: as §3, §4, §5

A431 (WT) = experiment: EGFR cell proliferation assay (CellTiter-Glo), A431; format: cell-based; conditions: Homo sapiens, A-431, 3-5 days of compound treatment
Protocol: as §3, §4, §5

hepatocytes = experiment: Metabolite identification in hepatocytes, human; format: in vitro ADME; conditions: 10 μM, 240 min, formation of AZ5104 via de-alkylation on the indole ring
Protocol: Suspended hepatocytes in enough incubation medium to yield ˜1.5×10^6 cells/mL. Pipetted 199 μL of viable hepatocytes or the boiled hepatocytes into each wells of a 96-well non-coated plate. Placed the plate in the incubator on an orbital shaker to allow the hepatocytes to warm for 10 minutes. Pipetted 1 μL of the 2 mM test compound(s) into respective wells of the 96-well non-coated plate to start the reaction with final concentration of 10 μM. Returned the plate to the incubator and placed on an orbital shaker. Incubated at 37° C., 5% CO2 and 90-95% relative humidity with shaking at 500 rpm on the shaker for 240 min. After incubation, transferred media from each well to a tube containing 400 μL cold methanol, washed the well with 200 μL cold methanol and then transferred the media to the corresponding tube. Centrifuged tubes for 10 minutes at 16,000 g. Aliquots of 200 μL of the supernatants were mixed with 200 μL of pure water and used for LC-MS/MS analysis. UHPLC-MS/MS analysis was conducted using a Dionex UltiMate 3000 UHPLC system (Thermo Fisher Scientific, USA) and Thermo Scientific Q Exactive (Thermo Fisher Scientific, USA) fitted with a HESI probe. […]

H1975 = conditions: read-out: H1975 Cell IC50; cited from earlier work
[1] = observed with AZD9291 treatment; cited from earlier work
EGFR L858R = EGFR L858R (Homo sapiens, UniProt P00533, L858R); experiment: EGFR biochemical enzyme assay, L858R
Protocol: [The source words this procedure for another variant and reports this variant under the same test.] as §1, §2

Sequence of EGFR Wt (P00533 25-1210): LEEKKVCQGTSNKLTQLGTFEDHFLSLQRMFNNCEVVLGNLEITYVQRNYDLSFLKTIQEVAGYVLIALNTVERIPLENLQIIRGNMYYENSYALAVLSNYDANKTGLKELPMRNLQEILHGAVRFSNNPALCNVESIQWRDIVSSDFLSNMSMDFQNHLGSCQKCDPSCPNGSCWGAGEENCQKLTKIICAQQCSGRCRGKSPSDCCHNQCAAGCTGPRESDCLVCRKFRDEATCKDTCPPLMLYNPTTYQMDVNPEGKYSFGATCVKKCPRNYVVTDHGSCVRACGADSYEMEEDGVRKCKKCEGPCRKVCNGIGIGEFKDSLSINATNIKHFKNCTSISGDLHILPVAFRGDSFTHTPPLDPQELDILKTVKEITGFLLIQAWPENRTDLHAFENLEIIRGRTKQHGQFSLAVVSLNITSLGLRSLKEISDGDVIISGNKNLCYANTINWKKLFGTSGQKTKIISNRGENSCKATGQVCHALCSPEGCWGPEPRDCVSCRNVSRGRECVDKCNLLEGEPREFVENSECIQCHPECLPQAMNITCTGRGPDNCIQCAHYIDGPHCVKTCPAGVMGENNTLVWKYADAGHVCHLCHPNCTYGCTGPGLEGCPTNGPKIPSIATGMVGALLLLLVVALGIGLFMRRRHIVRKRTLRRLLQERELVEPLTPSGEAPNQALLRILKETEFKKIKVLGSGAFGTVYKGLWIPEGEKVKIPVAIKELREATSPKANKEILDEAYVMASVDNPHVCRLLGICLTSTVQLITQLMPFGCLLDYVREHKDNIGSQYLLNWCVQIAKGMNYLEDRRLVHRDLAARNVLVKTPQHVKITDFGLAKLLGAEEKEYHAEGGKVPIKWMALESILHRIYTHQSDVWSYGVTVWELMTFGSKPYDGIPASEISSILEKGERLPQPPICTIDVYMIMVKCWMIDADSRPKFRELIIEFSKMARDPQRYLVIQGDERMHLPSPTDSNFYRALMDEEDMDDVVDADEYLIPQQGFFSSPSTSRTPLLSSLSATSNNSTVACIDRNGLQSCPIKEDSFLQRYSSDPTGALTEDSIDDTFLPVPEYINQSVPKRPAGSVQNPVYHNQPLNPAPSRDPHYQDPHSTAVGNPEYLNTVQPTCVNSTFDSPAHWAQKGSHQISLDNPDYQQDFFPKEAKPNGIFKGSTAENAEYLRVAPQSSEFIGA
Sequence of INSR (P06213 28-1382, species assumed): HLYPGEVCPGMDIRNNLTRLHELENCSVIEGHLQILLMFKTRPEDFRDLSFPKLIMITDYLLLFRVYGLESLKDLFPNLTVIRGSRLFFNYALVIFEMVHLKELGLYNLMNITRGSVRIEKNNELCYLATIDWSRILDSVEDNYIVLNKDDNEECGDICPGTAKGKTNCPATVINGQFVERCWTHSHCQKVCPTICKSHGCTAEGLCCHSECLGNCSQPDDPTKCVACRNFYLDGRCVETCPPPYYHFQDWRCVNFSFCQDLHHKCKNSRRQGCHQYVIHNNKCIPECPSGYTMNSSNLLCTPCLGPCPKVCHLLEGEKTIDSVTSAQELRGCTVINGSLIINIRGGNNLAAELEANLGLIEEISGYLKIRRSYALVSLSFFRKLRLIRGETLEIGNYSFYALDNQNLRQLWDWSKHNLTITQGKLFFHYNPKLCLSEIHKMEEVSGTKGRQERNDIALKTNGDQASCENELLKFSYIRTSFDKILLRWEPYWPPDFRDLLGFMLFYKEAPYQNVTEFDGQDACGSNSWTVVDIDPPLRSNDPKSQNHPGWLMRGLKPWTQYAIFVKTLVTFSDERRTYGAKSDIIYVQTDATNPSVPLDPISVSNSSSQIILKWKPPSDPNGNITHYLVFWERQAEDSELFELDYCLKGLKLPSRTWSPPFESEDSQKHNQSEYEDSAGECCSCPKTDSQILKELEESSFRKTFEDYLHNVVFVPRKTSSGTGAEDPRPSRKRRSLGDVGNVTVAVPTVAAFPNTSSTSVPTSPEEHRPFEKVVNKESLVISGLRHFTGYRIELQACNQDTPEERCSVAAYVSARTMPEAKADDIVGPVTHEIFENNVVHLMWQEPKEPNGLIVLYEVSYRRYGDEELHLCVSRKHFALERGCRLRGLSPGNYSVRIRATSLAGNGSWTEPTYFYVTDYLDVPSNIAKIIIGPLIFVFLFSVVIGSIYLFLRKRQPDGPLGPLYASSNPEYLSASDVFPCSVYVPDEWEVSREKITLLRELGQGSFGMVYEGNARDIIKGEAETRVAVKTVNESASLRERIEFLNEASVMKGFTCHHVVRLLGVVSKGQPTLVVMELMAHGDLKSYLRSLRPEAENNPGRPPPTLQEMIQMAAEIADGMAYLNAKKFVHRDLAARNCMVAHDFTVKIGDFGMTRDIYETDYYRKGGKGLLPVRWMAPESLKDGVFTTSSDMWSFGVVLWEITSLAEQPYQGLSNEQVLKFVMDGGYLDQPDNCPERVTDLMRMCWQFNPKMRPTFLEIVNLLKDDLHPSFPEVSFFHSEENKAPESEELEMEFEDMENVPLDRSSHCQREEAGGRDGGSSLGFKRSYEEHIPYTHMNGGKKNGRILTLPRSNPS
Sequence of IGF1R (P08069 31-1367, species assumed): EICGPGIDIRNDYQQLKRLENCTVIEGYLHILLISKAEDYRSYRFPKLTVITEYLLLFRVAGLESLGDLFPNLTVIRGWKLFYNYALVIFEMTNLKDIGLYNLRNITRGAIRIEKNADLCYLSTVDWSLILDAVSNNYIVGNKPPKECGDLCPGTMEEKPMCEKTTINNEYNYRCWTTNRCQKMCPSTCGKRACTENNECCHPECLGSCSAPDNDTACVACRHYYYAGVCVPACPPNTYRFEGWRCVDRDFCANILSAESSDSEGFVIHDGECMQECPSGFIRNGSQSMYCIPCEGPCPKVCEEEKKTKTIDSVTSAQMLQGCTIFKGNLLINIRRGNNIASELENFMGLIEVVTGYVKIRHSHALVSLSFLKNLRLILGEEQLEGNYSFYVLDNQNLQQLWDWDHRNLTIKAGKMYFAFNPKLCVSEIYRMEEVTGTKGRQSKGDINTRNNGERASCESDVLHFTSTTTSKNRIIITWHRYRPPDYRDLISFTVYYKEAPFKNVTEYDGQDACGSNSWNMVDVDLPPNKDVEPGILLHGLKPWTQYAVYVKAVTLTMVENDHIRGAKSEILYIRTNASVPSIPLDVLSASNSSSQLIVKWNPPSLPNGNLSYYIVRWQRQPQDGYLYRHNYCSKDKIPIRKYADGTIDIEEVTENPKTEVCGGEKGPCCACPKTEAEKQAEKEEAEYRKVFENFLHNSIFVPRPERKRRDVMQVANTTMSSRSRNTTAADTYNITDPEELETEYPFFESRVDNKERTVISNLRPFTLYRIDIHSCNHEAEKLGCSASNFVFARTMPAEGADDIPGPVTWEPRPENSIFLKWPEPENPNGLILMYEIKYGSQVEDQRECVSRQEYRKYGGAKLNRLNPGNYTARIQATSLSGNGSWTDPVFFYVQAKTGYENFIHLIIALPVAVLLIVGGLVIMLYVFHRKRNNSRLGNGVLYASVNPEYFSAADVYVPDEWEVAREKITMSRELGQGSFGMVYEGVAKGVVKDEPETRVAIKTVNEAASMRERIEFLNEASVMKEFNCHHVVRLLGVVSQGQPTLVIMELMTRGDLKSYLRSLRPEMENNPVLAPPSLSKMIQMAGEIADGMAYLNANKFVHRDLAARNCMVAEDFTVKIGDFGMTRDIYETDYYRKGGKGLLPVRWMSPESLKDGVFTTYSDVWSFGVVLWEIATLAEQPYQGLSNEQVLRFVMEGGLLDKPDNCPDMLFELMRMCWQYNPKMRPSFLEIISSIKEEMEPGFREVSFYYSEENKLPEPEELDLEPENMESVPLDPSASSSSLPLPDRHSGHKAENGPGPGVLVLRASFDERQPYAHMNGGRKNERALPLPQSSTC
Sequence of EGFR L858R (P00533 25-1210 L858R): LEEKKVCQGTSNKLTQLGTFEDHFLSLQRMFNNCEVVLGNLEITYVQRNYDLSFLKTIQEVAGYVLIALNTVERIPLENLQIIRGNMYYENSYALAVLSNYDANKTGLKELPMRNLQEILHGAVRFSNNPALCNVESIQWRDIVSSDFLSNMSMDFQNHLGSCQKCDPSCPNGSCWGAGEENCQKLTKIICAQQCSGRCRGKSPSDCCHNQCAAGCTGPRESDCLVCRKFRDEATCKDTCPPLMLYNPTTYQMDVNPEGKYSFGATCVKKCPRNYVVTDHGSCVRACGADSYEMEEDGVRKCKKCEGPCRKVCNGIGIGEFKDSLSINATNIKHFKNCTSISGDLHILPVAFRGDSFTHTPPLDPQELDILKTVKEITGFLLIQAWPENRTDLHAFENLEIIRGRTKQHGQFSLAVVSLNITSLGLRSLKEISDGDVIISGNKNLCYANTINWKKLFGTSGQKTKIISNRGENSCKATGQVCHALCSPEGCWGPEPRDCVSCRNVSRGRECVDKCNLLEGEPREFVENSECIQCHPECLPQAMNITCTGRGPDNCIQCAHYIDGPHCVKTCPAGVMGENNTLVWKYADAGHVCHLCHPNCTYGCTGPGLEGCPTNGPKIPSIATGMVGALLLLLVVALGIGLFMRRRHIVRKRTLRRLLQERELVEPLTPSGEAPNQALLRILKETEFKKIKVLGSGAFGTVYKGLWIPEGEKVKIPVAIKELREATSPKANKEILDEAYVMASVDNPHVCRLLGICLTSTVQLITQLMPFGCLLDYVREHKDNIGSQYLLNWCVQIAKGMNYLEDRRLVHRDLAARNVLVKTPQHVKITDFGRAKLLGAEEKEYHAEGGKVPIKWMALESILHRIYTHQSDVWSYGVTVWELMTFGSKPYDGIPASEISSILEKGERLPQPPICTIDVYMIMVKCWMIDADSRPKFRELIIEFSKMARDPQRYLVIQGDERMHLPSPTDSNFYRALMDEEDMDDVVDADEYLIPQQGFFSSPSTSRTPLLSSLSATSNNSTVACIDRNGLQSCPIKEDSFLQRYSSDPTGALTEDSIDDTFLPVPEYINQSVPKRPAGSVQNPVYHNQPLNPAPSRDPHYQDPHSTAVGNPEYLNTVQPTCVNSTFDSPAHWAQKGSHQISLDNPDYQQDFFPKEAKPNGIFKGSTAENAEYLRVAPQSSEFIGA

SMILES | IC50 (EGFR (T790M/L858R)) [nM] | IC50 (EGFR Del-19) [nM] | IC50 (EGFR Wt) [nM] | IC50 (IGF1R) [nM] | IC50 (INSR) [nM] | IC50 (H1975 (L858R/T790M)) [nM] | IC50 (PC9 (E746-A750 deletion)) [nM] | IC50 (A431 (WT)) [nM] | Metabolite AZ5104, Human (hepatocytes) | IC50 (EGFR L858R) [nM] | IC50 (H1975) [nM] | clinical side effect: diarrhea [1] [%] | clinical side effect: rash [1] [%]
C=CC(=O)Nc1cc(Nc2nccc(-c3cn(C45CC(C4)C5)c4ccccc34)n2)c(OC)cc1N(C)CCNC [Example 8, N-(5-((4-(1-(Bicyclo[1.1.1]pentan-1-yl)-1H-indol-3-yl)pyrimidin-2-yl)amino)-4-methoxy-2-(methyl(2-(methylamino)ethyl)amino)phenyl)acrylamide] | ≤ 10 | ≤ 10 | 10 to 100 | ≥ 100 | ≥ 100 | ≤ 50 | ≤ 50 | ≥ 300 | – | – | – | – | –
C=CC(=O)Nc1cc(Nc2nccc(-c3c[nH]c4ccccc34)n2)c(OC)cc1N(C)CCN(C)C [AZ5104] | – | – | – | – | – | – | – | – | – | – | 2 | – | –
C=CC(=O)Nc1cc(Nc2nccc(-c3cn(C45CC(C4)C5)c4ccccc34)n2)c(OC)cc1N(C)CCN(C)C [Example 1, N-(5-((4-(1-(bicyclo[1.1.1]pentan-1-yl)-1H-indol-3-yl)pyrimidin-2-yl)amino)-2-((2-(dimethylamino)ethyl)(methyl)amino)-4-methoxyphenyl)acrylamide] | ≤ 10 | ≤ 10 | ≤ 10 | ≥ 100 | ≥ 100 | ≤ 50 | ≤ 50 | ≥ 300 | did not lead to the formation | ≤ 10 | – | – | –
C=CC(=O)Nc1cc(Nc2nccc(-c3nn(C45CC(C4)C5)c4ccccc34)n2)c(OC)cc1N(C)CCN(C)C [Example 5, N-(5-((4-(1-(bicyclo[1.1.1]pentan-1-yl)-1H-indazol-3-yl)pyrimidin-2-yl)amino)-2-((2-(dimethylamino)ethyl)(methyl)amino)-4-methoxyphenyl)acrylamide] | ≤ 10 | ≤ 10 | ≤ 10 | ≥ 100 | ≥ 100 | ≤ 50 | 50 to 300 | ≥ 300 | – | – | – | – | –
C=CC(=O)Nc1cc(Nc2nccc(-c3cn(C)c4ccccc34)n2)c(OC)cc1N(C)C12CC(CN(C)C)(C1)C2 [Example 4, N-(2-((3-((dimethylamino)methyl)bicyclo[1.1.1]pentan-1-yl)(methyl)amino)-4-methoxy-5-((4-(1-methyl-1H-indol-3-yl)pyrimidin-2-yl)amino)phenyl)acrylamide] | ≥ 100 | ≥ 100 | 10 to 100 | ≥ 100 | ≥ 100 | ≥ 300 | ≥ 300 | ≥ 300 | – | – | – | – | –
C=CC(=O)Nc1cc(Nc2nccc(-c3cn(C45CC(F)(C4)C5)c4ccccc34)n2)c(OC)cc1N(C)CCN(C)C [Example 7, N-(2-((2-(dimethylamino)ethyl)(methyl)amino)-5-((4-(1-(3-fluorobicyclo[1.1.1]pentan-1-yl)-1H-indol-3-yl)pyrimidin-2-yl)amino)-4-methoxyphenyl)acrylamide] | ≤ 10 | ≤ 10 | ≤ 10 | – | – | ≤ 50 | ≥ 300 | ≥ 300 | – | ≤ 10 | – | – | –

Further lines, with some results ahead:

IC50 (EGFR (T790M/L858R)) [nM] | IC50 (EGFR Del-19) [nM] | IC50 (EGFR Wt) [nM] | IC50 (IGF1R) [nM] | IC50 (INSR) [nM] | IC50 (H1975 (L858R/T790M)) [nM] | IC50 (PC9 (E746-A750 deletion)) [nM] | IC50 (A431 (WT)) [nM] | Metabolite AZ5104, Human (hepatocytes) | IC50 (EGFR L858R) [nM] | SMILES | IC50 (H1975) [nM] | clinical side effect: diarrhea [1] [%] | clinical side effect: rash [1] [%]
≤ 10 | ≤ 10 | ≤ 10 | ≥ 100 | ≥ 100 | 50 to 300 | 50 to 300 | ≥ 300 | – | – | C=CC(=O)Nc1cc(Nc2nccc(-c3cn(C45CC(C#N)(C4)C5)c4ccccc34)n2)c(OC)cc1N(C)CCN(C)C [Example 2, N-(5-((4-(1-(3-cyanobicyclo[1.1.1]pentan-1-yl)-1H-indol-3-yl)pyrimidin-2-yl)amino)-2-((2-(dimethylamino)ethyl)(methyl)amino)-4-methoxyphenyl)acrylamide] | – | – | –
≤ 10 | ≤ 10 | ≤ 10 | ≥ 100 | ≥ 100 | ≤ 50 | ≤ 50 | 50 to 300 | – | – | C=CC(=O)Nc1cc(Nc2ncc(C#N)c(-c3cn(C45CC(C4)C5)c4ccccc34)n2)c(OC)cc1N(C)CCN(C)C [Example 3, N-(5-((4-(1-(bicyclo[1.1.1]pentan-1-yl)-1H-indol-3-yl)-5-cyanopyrimidin-2-yl)amino)-2-((2-(dimethylamino)ethyl)(methyl)amino)-4-methoxyphenyl)acrylamide] | – | – | –
– | – | – | – | – | – | – | – | Observed | – | C=CC(=O)Nc1cc(Nc2nccc(-c3cn(C)c4ccccc34)n2)c(OC)cc1N(C)CCN(C)C [AZD9291] | 15 | 42 | 41
≤ 10 | ≥ 100 | ≥ 100 | ≥ 100 | ≥ 100 | ≥ 300 | ≥ 300 | ≥ 300 | – | ≥ 100 | C=CC(=O)Nc1cc(Nc2nccc(-c3cn(C)c4ccccc34)n2)c(OC)cc1N(C)C12CC(N(C)C)(C1)C2 [Example 6, N-(2-((3-(dimethylamino)bicyclo[1.1.1]pentan-1-yl)(methyl)amino)-4-methoxy-5-((4-(1-methyl-1H-indol-3-yl)pyrimidin-2-yl)amino)phenyl)acrylamide] | – | – | –
